# Test results from ChEMBL document CHEMBL3797107, “Discovery of 5-(methylthio)pyrimidine derivatives as L858R/T790M mutant selective epidermal growth factor receptor (EGFR) inhibitors” (Bioorg Med Chem, 2016).
# Activity calls are given as the source filed them. The calls are words filed in the database; no cut-off is given here.
# Key:
# [1] = molecular target: T1, Epidermal growth factor receptor (Homo sapiens, UniProt P00533); assay: Inhibition of wild-type EGFR (unknown origin) expressed in baculovirus expression system after 1 hr by ELISA
# [2] = molecular target: Epidermal growth factor receptor (Homo sapiens, UniProt P00533, L858R/T790M); assay: Inhibition of EGFR T790M/L858R mutant (unknown origin) expressed in baculovirus expression system after 1 hr by ELISA
# [3] = system: A-431; assay: Antiproliferative activity against human A431 cells overexpressing wild-type EGFR after 72 hrs by SRB assay; format: functional, cell-based; conditions: A-431, 72 h
# [4] = system: NCI-H1975; assay: Antiproliferative activity against human NCI-H1975 cells expressing EGFR T790M/L858R mutant after 72 hrs by SRB assay; format: functional, cell-based; conditions: NCI-H1975, 72 h
# [5] = system: Epidermal growth factor receptor (Homo sapiens), P00533 [L858R,T790M]; assay: Inhibition of EGFR T790M/L858R mutant phosphorylation in EGF-stimulated human NCI-H1975 cells preincubated for 2 hrs followed by EGF addition for 10 mins by western blot analysis; format: cell-based
# [6] = system: Epidermal growth factor receptor (Homo sapiens), P00533 [L858R,T790M]; assay: Inhibition of EGFR T790M/L858R mutant in EGF-stimulated human NCI-H1975 cells assessed as decrease in phosphorylated Akt level preincubated for 2 hrs followed by EGF addition for 10 mins by western blot analysis; format: cell-based
# [7] = system: Epidermal growth factor receptor (Homo sapiens), P00533 [L858R,T790M]; assay: Inhibition of EGFR T790M/L858R mutant in EGF-stimulated human NCI-H1975 cells assessed as decrease in phosphorylated Erk level preincubated for 2 hrs followed by EGF addition for 10 mins by western blot analysis; format: cell-based
# [8] = molecular target: T1, Epidermal growth factor receptor; assay: Inhibition of wild-type EGFR phosphorylation in EGF-stimulated human A431 cells preincubated for 2 hrs followed by EGF addition for 10 mins by western blot analysis; format: cell-based; conditions: A-431
# [9] = molecular target: T1, Epidermal growth factor receptor; assay: Inhibition of wild-type EGFR in EGF-stimulated human A431 cells assessed as decrease in phosphorylated Akt level preincubated for 2 hrs followed by EGF addition for 10 mins by western blot analysis; format: cell-based; conditions: A-431
# [10] = molecular target: T1, Epidermal growth factor receptor; assay: Inhibition of wild-type EGFR in EGF-stimulated human A431 cells assessed as decrease in phosphorylated Erk level preincubated for 2 hrs followed by EGF addition for 10 mins by western blot analysis; format: cell-based; conditions: A-431
# [11] = system: Epidermal growth factor receptor (Homo sapiens), P00533 [L858R,T790M]; assay: Inhibition of EGFR T790M/L858R mutant in EGF-stimulated human NCI-H1975 cells assessed as decrease in phosphorylated Akt level at 0.001 to 1 uM preincubated for 2 hrs followed by EGF addition for 10 mins by western blot analysis; format: cell-based
# [12] = system: Epidermal growth factor receptor (Homo sapiens), P00533 [L858R,T790M]; assay: Inhibition of EGFR T790M/L858R mutant in EGF-stimulated human NCI-H1975 cells assessed as decrease in phosphorylated Erk level at 0.001 to 1 uM preincubated for 2 hrs followed by EGF addition for 10 mins by western blot analysis; format: cell-based
# [13] = system: NCI-H1975; assay: Effect on total EGFR level in human NCI-H1975 cells at 0.001 to 1 uM preincubated for 2 hrs followed by EGF addition for 10 mins by western blot analysis; format: ADME, cell-based; conditions: nci-h1975, 10 min
# [14] = system: NCI-H1975; assay: Effect on total Akt level in human NCI-H1975 cells at 0.001 to 1 uM preincubated for 2 hrs followed by EGF addition for 10 mins by western blot analysis; format: ADME, cell-based; conditions: nci-h1975, 10 min
# [15] = system: NCI-H1975; assay: Effect on total Erk level in human NCI-H1975 cells at 0.001 to 1 uM preincubated for 2 hrs followed by EGF addition for 10 mins by western blot analysis; format: ADME, cell-based; conditions: nci-h1975, 10 min
# [16] = system: NCI-H1975; assay: Effect on total tubulin level in human NCI-H1975 cells at 0.001 to 1 uM preincubated for 2 hrs followed by EGF addition for 10 mins by western blot analysis; format: ADME, cell-based; conditions: nci-h1975, 10 min
# Epidermal growth factor receptor (Homo sapiens, UniProt P00533, L858R/T790M), sequence (P00533 25-1210 T790M/L858R limits assumed): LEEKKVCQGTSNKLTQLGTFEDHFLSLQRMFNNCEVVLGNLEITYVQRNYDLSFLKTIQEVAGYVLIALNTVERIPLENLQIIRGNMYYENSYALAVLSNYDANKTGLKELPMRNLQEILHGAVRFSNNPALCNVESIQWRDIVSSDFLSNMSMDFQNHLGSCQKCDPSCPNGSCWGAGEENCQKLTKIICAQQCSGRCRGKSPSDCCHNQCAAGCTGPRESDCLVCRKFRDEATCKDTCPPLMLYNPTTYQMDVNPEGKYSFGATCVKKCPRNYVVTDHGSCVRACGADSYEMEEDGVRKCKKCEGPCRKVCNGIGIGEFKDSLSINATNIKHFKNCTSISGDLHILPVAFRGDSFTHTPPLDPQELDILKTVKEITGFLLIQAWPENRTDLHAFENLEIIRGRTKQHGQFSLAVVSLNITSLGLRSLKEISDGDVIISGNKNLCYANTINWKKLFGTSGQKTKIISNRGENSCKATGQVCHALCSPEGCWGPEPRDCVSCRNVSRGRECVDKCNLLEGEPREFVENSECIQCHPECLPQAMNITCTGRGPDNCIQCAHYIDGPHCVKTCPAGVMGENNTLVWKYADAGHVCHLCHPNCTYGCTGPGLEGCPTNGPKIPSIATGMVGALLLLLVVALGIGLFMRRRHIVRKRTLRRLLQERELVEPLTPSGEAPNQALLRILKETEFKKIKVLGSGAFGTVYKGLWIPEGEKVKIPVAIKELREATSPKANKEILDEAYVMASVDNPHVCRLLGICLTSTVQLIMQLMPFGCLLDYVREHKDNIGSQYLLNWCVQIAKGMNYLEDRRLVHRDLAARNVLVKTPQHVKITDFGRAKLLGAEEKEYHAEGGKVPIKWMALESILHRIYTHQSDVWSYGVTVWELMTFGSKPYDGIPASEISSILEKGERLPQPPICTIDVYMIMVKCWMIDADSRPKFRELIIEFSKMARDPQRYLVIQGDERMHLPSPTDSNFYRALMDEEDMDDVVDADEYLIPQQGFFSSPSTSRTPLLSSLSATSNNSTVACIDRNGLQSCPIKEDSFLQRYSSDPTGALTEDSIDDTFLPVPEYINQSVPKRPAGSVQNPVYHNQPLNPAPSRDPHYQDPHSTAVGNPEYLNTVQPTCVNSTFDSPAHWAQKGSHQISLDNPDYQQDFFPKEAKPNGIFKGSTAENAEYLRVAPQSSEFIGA
# T1 sequence (P00533 whole entry): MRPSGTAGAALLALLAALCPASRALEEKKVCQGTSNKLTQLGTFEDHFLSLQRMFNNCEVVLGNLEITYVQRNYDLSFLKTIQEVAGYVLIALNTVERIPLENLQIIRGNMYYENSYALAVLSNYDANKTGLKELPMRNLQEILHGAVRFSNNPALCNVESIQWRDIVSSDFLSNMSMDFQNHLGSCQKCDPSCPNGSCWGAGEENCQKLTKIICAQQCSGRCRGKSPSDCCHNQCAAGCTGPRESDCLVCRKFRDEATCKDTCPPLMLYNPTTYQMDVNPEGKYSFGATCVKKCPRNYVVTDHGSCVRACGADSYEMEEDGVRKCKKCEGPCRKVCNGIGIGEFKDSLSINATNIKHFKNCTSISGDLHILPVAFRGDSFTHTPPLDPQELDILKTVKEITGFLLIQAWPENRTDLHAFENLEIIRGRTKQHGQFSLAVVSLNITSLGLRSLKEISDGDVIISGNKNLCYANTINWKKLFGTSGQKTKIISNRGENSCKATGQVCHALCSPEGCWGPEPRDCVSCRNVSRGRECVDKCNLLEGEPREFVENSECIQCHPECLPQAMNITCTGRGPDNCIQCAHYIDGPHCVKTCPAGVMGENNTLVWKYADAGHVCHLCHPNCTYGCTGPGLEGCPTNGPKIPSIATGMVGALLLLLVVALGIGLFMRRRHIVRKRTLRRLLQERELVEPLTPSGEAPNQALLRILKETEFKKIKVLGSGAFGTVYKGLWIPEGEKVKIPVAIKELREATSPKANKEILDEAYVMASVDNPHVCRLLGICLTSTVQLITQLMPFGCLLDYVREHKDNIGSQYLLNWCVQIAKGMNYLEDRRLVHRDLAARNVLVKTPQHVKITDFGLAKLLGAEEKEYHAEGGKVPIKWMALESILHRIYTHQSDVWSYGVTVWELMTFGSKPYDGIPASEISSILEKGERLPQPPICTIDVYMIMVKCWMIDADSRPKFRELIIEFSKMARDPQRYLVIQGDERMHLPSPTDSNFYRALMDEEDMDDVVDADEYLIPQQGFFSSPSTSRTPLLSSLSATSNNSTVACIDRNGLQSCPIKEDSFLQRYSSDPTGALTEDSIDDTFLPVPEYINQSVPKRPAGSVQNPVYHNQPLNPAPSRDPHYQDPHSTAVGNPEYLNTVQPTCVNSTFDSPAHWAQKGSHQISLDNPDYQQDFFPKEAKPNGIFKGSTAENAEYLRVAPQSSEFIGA
# Epidermal growth factor receptor (Homo sapiens), P00533 [L858R,T790M], sequence (P00533 whole entry T790M/L858R, looked up): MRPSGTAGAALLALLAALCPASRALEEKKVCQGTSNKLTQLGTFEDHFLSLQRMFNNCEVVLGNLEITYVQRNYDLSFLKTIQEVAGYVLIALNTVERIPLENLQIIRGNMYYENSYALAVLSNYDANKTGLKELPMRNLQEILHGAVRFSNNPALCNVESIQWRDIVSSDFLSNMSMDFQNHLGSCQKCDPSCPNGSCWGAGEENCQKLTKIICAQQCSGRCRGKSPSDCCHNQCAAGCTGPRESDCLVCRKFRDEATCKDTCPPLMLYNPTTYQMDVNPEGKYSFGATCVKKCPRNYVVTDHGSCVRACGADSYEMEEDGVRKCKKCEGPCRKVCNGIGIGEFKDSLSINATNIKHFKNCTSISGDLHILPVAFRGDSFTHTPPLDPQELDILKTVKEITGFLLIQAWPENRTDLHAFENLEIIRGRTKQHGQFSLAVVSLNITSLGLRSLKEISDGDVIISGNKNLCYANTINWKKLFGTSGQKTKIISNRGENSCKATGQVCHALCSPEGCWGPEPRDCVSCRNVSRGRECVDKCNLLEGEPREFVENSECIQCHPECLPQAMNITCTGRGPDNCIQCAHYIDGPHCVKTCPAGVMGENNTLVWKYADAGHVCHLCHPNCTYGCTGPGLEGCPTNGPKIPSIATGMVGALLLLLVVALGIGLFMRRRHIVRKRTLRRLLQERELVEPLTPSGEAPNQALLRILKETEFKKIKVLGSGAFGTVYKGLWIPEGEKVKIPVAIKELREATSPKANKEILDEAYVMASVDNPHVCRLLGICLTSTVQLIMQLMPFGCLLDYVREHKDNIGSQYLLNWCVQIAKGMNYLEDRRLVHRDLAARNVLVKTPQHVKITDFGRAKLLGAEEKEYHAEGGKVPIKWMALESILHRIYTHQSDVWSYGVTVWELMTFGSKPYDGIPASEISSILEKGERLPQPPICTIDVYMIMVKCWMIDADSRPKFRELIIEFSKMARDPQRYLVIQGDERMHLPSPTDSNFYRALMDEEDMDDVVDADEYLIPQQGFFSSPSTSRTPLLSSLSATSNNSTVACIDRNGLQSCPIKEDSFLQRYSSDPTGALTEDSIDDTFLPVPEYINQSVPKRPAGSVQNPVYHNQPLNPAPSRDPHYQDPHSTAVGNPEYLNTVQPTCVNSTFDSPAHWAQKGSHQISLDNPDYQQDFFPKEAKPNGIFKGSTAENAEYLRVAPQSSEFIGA
Compound,IC50 [1] [nM],IC50 [2] [nM],IC50 [3] [µM],IC50 [4] [nM],inhibition [5],inhibition [6],inhibition [7],inhibition [8],inhibition [9],inhibition [10],inhibition [11],inhibition [12],Activity [13],Activity [14],Activity [15],Activity [16]
C=CC(=O)Nc1cccc(Oc2nc(Nc3ccc(N4CCCN(C(C)=O)CC4)cc3OC)ncc2SC)c1,389,1.8,4.29,573,,,,,,,,,,,,
C=CC(=O)Nc1cccc(Oc2nc(Nc3ccc(N4CCN(S(C)(=O)=O)CC4)cc3OC)ncc2SC)c1,730,7.3,> 10,1690,,,,,,,,,,,,
C=CC(=O)Nc1cccc(Oc2nc(Nc3ccc(N4CCN(C)CC4)cc3OC)ncc2Cl)c1,,,,95,,,,,,,,,,,,
C=CC(=O)Nc1cccc(Oc2nc(Nc3ccc(N4CCN(C(=O)CC)CC4)cc3OC)ncc2SC)c1,154,5.8,4.42,148,Dose-dependent effect,Dose-dependent effect,Dose-dependent effect,Dose-dependent effect,Dose-dependent effect,Dose-dependent effect,,,,,,
C=CC(=O)Nc1cccc(Oc2nc(Nc3ccc(N4CCN(C)CC4)cc3OC)ncc2SC)c1,272,0.4,3.88,167,Dose-dependent effect,,,,,,Active,Active,Non-toxic,Non-toxic,Non-toxic,Non-toxic
C=CC(=O)Nc1cccc(Oc2nc(Nc3ccc(N4CCN(C(C)=O)CC4)cc3OC)ncc2C(F)(F)F)c1,,,1.89,88,Dose-dependent effect,,,,,,Active,Active,,,,
C=CC(=O)Nc1cccc(Oc2nc(Nc3ccc(N4CCN(C(=O)C(F)(F)F)CC4)cc3OC)ncc2SC)c1,248,4.4,1.19,404,,,,,,,,,,,,
C=CC(=O)Nc1cccc(Oc2nc(Nc3ccc(N4CCN(C(=O)C(C)C)CC4)cc3OC)ncc2SC)c1,174,3.6,2.01,200,,,,,,,,,,,,
C=CC(=O)Nc1cccc(Oc2nc(Nc3ccc(N4CCN(C(C)=O)CC4)cc3OC(F)F)ncc2SC)c1,38.8,2.8,4.65,20,Dose-dependent effect,Dose-dependent effect,Dose-dependent effect,Dose-dependent effect,Dose-dependent effect,Dose-dependent effect,,,,,,
C=CC(=O)Nc1cccc(Oc2nc(Nc3ccc(N4CCN(C(=O)CC)CC4)cc3OC(F)F)ncc2SC)c1,46.4,3.7,4.92,88,Dose-dependent effect,Dose-dependent effect,Dose-dependent effect,Dose-dependent effect,Dose-dependent effect,Dose-dependent effect,,,,,,
C=CC(=O)Nc1cccc(Oc2nc(Nc3ccc(N4CCN(C(=O)C(C)(C)C)CC4)cc3OC)ncc2SC)c1,410,9.6,9.22,577,,,,,,,,,,,,
C=CC(=O)Nc1cccc(Oc2nc(Nc3ccc(N4CCN(C(C)=O)CC4)cc3OC)ncc2SC)c1,87.5,0.7,4.58,194,,,,,,,,,,,,
